From US20210198613A1, “MICROELECTRODE ARRAY AND USES THEREOF” (AXOSIM, INC., priority 2018, published 2021)
Read-outs that look alike come from different tables or passages of the source.

Tests used:
[1] = test system: neuronal cell death in vitro; conditions: cited from earlier work
[2] = test system: embryonic dorsal root ganglion (DRG) explants; test: Nerve-On-A-Chip compound action potential (CAP) electrophysiology; type: cell-based, rat; conditions: 40 μM, 48-hr application
[3] = test system: embryonic dorsal root ganglion (DRG) explants; conditions: 40 μM, 48-hr application
[4] = test system: embryonic dorsal root ganglion (DRG) explants; conditions: cited from earlier work

[CH3][Hg][Cl] [Methylmercury]
In Vitro Neurotoxic dose ([1]; literature value, used as acute 48-hr dose of the planned pilot study): 10 mM

C=C[C@@]1(C)CC(=O)[C@]2(O)[C@@]3(C)[C@@H](O)CCC(C)(C)[C@@H]3[C@H](O)[C@H](OC(C)=O)[C@@]2(C)O1 [forskolin]
reduction in CAP amplitude [2]: ~50% | reduction in conduction velocity [2]: ~50% | dysmyelination by histology [3]: strong evidence of dysmyelination | increase in G-ratio (thinning of myelin sheath) ([3]; histology, data not shown): 50% | reduction in % myelinated axons ([3]; histology, data not shown): 70%

CCCCCC [n-hexane]
In Vitro Neurotoxic dose [1]: 765 mM

NC1=N[C@H](O)[C@H]2[C@H]3O[C@]4(O)O[C@@H]([C@@H](O)[C@@]2(N1)[C@@H]4O)[C@]3(O)CO [tetrodotoxin]
effect on CAP population responses [4]: reversibly abolished
